Results: US20250019401A1, “ANTIMICROBIAL PEPTIDE BOLESPLEENIN OF BOLEOPHTHALMUS PECTINIROSTRIS AND APPLICATION THEREOF” (Xiamen University, priority 2023, published 2025)
Where a SMILES comes first, the peptide text is derived from it.

Key:
Format in all cases: cell-based
Aspergillus flavus = tested on: Aspergillus flavus
From the text: (§1) Bacterial strains involved in Embodiment 2 are as follows: Staphylococcus aureus, Acinetobacter baumannii, Escherichia coli, Enterococcus faecium, Enterococcus faecalis, Pseudomonas aeruginosa, Cryptococcus neoformans, Fusarium oxysporum, Aspergillus flavus, and Fusarium solani.
(§2) The bacterial strains are purchased from the China General Microbiological Culture Collection Center (CGMCC).
(§3) A specific analysis method of this embodiment is as follows:
(§4) (1) The conserved strains are coated on a nutrient broth plate, a Yeast Extract Peptone Dextrose (YPD) plate, or a potato dextrose plate and are inverted and incubated for 1-7 days.
(§5) (2) Colonies are picked from the plates, inoculated on a slant with a corresponding medium, continually incubated for 1-7 days, and washed down from the slant with corresponding medium with 10 mMol/L (mM) of sodium phosphate buffer (pH=7.4), and concentrations of suspensions of the bacteria or suspensions of the fungi are adjusted. The suspensions of the bacteria are diluted so that final concentrations are 5×10^5 CFU/mL. Mold spores of the suspensions of the fungi are counted under an optical microscope using a hemocyte counting plate, and concentrations of mold spores are adjusted to final concentrations of 5×10^4 spores/mL.
(§6) (3) Powder of the synthesized antimicrobial peptide Bolespleenin is dissolved in sterilized distillation-distillation H2O (ddH2O), filtered through a 0.22 μm filter membrane, and concentrations of the antimicrobial peptide Bolespleenin are then diluted to 3 μM, 6 μM, 12 μM, 24 μM, 48 μM, 96 μM, and 192 μM, and placed on ice for use.
(§7) (4) A blank control group, a negative control group, and an experimental group of each of the bacteria and the fungi to be tested are set on 96-well cell culture plates, and each of the blank control group, the negative control group, and the experimental group has three parallel samples.
(§8) The blank control group a: 50 μL of the antimicrobial peptide Bolespleenin with 50 μL of the corresponding medium;
(§9) The negative control group b: 50 μL of the sterilized ddH2O with 50 μL of each of the suspensions of the bacteria or the suspensions of the fungi; and
(§10) The experimental group c: 50 μL of the antimicrobial peptide Bolespleenin with 50 μL of each of the suspensions of the bacteria or the suspensions of the fungi.
(§11) (5) The 96-well cell culture plates are plated in an incubator at 28° C. and incubated for 1-2 days, and MIC results of the experimental group are observed. The experimental group is mixed by blowing, an appropriate amount of each of the suspensions of the bacteria or the suspensions of the fungi is sucked up, added dropwise onto the plate with the corresponding medium, and inverted and incubated at an appreciate temperature for 1-2 days, and MBC results are observed.

Fusarium solani = tested on: Fusarium solani
From the text: as §1, §2, §3, §4, §5, §6, §7, §8, §9, §10, §11

Enterococcus faecium = tested on: Enterococcus faecium
From the text: as §1, §2, §3, §4, §5, §6, §7, §8, §9, §10, §11

Fusarium oxysporum = tested on: Fusarium oxysporum
From the text: as §1, §2, §3, §4, §5, §6, §7, §8, §9, §10, §11

Staphylococcus aureus = tested on: Staphylococcus aureus
From the text: as §1, §2, §3, §4, §5, §6, §7, §8, §9, §10, §11

Cryptococcus neoformans = tested on: Cryptococcus neoformans
From the text: as §1, §2, §3, §4, §5, §6, §7, §8, §9, §10, §11

Acinetobacter baumannii = tested on: Acinetobacter baumannii
From the text: as §1, §2, §3, §4, §5, §6, §7, §8, §9, §10, §11

Escherichia coli = tested on: Escherichia coli
From the text: as §1, §2, §3, §4, §5, §6, §7, §8, §9, §10, §11

Pseudomonas aeruginosa = tested on: Pseudomonas aeruginosa
From the text: as §1, §2, §3, §4, §5, §6, §7, §8, §9, §10, §11

Enterococcus faecalis = tested on: Enterococcus faecalis
From the text: as §1, §2, §3, §4, §5, §6, §7, §8, §9, §10, §11

SMILES: CC[C@H](C)[C@H](NC(=O)[C@@H](N)CC(C)C)C(=O)NCC(=O)N[C@@H](CC(C)C)C(=O)N[C@@H](Cc1ccc(O)cc1)C(=O)N[C@@H](CC(C)C)C(=O)N[C@@H](CC(C)C)C(=O)N[C@@H](Cc1c[nH]cn1)C(=O)N[C@@H](CCCNC(=N)N)C(=O)N[C@@H](CCCNC(=N)N)C(=O)N[C@@H](CCCNC(=N)N)C(=O)N[C@@H](CCCNC(=N)N)C(=O)N[C@@H](CCCNC(=N)N)C(=O)N[C@@H](Cc1c[nH]cn1)C(=O)O [Bolespleenin, Leu-Ile-Gly-Leu-Tyr-Leu-Leu-His-Arg-Arg-Arg-Arg-Arg-His] (H-LIGLYLLHRRRRRH-OH)
- MBC (a-b) (Aspergillus flavus): 24 to 48 µM
- MIC (a-b) (Aspergillus flavus): 6 to 12 µM
- MBC (a-b) (Fusarium solani): 3 to 6 µM
- MIC (a-b) (Fusarium solani): 3 to 6 µM
- MBC (a-b) (Enterococcus faecium): 1.5 to 3 µM
- MIC (a-b) (Enterococcus faecium): 1.5 to 3 µM
- MBC (a-b) (Fusarium oxysporum): 3 to 6 µM
- MIC (a-b) (Fusarium oxysporum): 3 to 6 µM
- MBC (a-b) (Staphylococcus aureus): 1.5 to 3 µM
- MIC (a-b) (Staphylococcus aureus): <1.5 µM
- MBC (a-b) (Cryptococcus neoformans): <1.5 µM
- MIC (a-b) (Cryptococcus neoformans): <1.5 µM
- MBC (a-b) (Acinetobacter baumannii): 1.5 to 3 µM
- MIC (a-b) (Acinetobacter baumannii): 1.5 to 3 µM
- MBC (a-b) (Escherichia coli): 6 to 12 µM
- MIC (a-b) (Escherichia coli): 3 to 6 µM
- MBC (a-b) (Pseudomonas aeruginosa): 1.5 to 3 µM
- MIC (a-b) (Pseudomonas aeruginosa): <1.5 µM
- MBC (a-b) (Enterococcus faecalis): 3 to 6 µM
- MIC (a-b) (Enterococcus faecalis): 3 to 6 µM
